Reference: USRE39062E1, “INGAP protein involved in pancreatic islet neogenesis” (McGill Unviersity, priority 1995, dated 2006)

Columns and labels:
Format in all cases: cell-based
[1] = system: pancreatic ductal cells; assay: Stimulation of pancreatic ductal cells to grow and proliferate
[2] = system: rat tumor duct cell line; assay: Growth and proliferation of a rat tumor duct cell line
[3] = system: hamster duct cell line; assay: Growth and proliferation of a hamster duct cell line
[4] = system: hamster insulinoma cell line; assay: Growth and proliferation of a hamster insulinoma cell line
[5] = system: rat insulinoma cell line; assay: Growth and proliferation of a rat insulinoma cell line
[6] = system: rat pancreatic tumor duct cells (ARIP); assay: 3H-thymidine incorporation into rat pancreatic tumor duct cells (ARIP); settings: ARIP cells in Ham's F-12K media, 24 hrs, TCA precipitation
Method: (§1) The same synthetic peptide was tested for its ability to stimulate ^3H-thymidine incorporation into rat pancreatic tumor duct cells (ARIP) and hamster insulinoma tumor cells (HIT). 10 μCi of ^3H-thymidine at 80.4 Ci/mmole concentration was added to approximate 10^6 cells cultured in Ham's F-12K media. After 24 hrs, the cells were harvested and solubilized. Differential precipitation of the nucleic acids with trichloroacetic acid (TCA) was performed according to the procedure modified by Rosenberg et al. and the ^3H-thymidine proportion incorporated was calculated. […] The synthetic peptide had no effect on the control cell line HIT.

[7] = system: hamster insulinoma tumor cells (HIT); assay: 3H-thymidine incorporation into hamster insulinoma tumor cells (HIT), control cell line; settings: HIT control cell line in Ham's F-12K media, 24 hrs, TCA precipitation
Method: as §1

Substance	stimulation of growth and proliferation [1]	stimulation of growth and proliferation [2]	stimulation of growth and proliferation [3]	stimulation of growth and proliferation [4]	stimulation of growth and proliferation [5]	increase in 3H-thymidine incorporation comparing to the absence of the synthetic peptide [6] [fold]	effect on 3H-thymidine incorporation [7]
fragment of 20 amino acids of the sequence of SEQ ID NO: 2, from amino acid #103-#122: fragment of 20 amino acids of INGAP, SEQ ID NO: 2, amino acids #103-#122 (IGLHDPSHGTLPNGSGWKWS)	sufficient to stimulate pancreatic ductal cells to grow and proliferate	effect has been seen	effect has been seen	effect has been seen	effect has been seen	–	–
synthetic peptide: synthetic peptide corresponding to amino acids 104-118 in SEQ ID NO:2 of the deduced hamster INGAP protein (GLHDPSHGTLPNGSG)	–	–	–	–	–	2.4	no effect
